Measured values as given in US20190284192A1, “NITROGENOUS MACROCYCLIC COMPOUND, PREPARATION METHOD THEREFOR, PHARMACEUTICAL COMPOSITION AND APPLICATION THEREOF” (LUOXIN PHARMACEUTICAL (SHANGHAI) CO., LTD., priority 2016, published 2019).

Tested on: MYC mRNA expression in MV-4-11 xenograft tumor
Assay: PKPD of compound 4009 in MV-4-11 subcutaneous xenograft (MYC mRNA by RT-qPCR)
Type: in vivo, BALB/c nude mice
Conditions: 15 mg/kg single dose intragastric; 1, 2, 4, 6, 8, 24 h
Description: Cell Culture MV-4-11 (purchased from ATCC, CRL-9591) cells were single-layer-cultured in vitro, culture condition is IMDM medium supplemented with 10% heat-inactivated fetal bovine serum and 1% penicillin-streptomycin double antibody, at 37° C., 5% CO2. According to the growth of the cells, the treatment was passaged twice a week. When the cells are in the exponential growth phase, the cells are collected, counted, and inoculated.
Experimental protocol: 0.2 mL of cell suspension containing about […] cells (cell suspended in IMDM medium and added with 50% Matrigel) was inoculated subcutaneously into the right back of each mouse. […] Grouping method: animals were weighed before dosing and tumor volume was measured. […]
Preparation of cDNA: The concentration of RNA (NanaDrop2000) was determined, 2 μg RNA was used as a template for reverse transcription, and cDNA preparation (RT-PCR) was performed using a High Capacity cDNA Reverse Transcription Kit.
Quantitative amplification of the target gene: Real-time qPCR amplification was performed using TaqMan fluorescent probe and cDNA as a template. […] The reaction system was separately added to a 384-well plate, and each sample of the target gene and the comparative gene was measured for three replicate wells, and the reaction was run on a prepared 384-well plate instrument (ABI ViiA7).

With `CCS(=O)(=O)Cc1ccc2c(c1)-c1cn(C)c(=O)cc1CN=C2c1ccc(F)cc1` [Compound 4009, 7-(4-fluorophenyl)-2-methyl-10-(ethylsulfonemethyl)-2H-benzo[c]pyrido[3,4-e]azepin-3(5H)-ketone] the “inhibition of the expression level of MYC mRNA in the tumor versus concentration of the drug in the tumor” value was “good correlation”.
